Assay results reported in paper PMC6825211 (Nature Communications, 2019).
Where “and” joins values, the source holds several entries; their conditions need not be identical. Identical values can stand only once.

What was measured:
[1] = test system: obese diabetic Lepr db/db mice; test: db/db model: ipGTT; assay type: in vivo, mouse; parameters: AUC ipGTT: unit not given beside the values
Source text: (§1) Data are representative of six mice per group (n = 6 for (a–f)). g–j Mice were killed at day 31. g β-cell mass (given as percentage of the whole pancreatic section from ten sections spanning the width of the pancreas; n = 5 mice/group) and quantitative analyses from triple stainings for (h) TUNEL, (i) Ki67, (j) pHH3, and (k) nuclear PDX1 expression, insulin, and DAPI expressed as percentage of TUNEL-, Ki67-, pHH3-, or nuclear PDX1-positive β-cells ± SEM. An average number of 13667 (h), 5937 (i), 7108 (j), or 4330 (k) β-cells were counted from n = 3–5 (h, i, k) or n = 5–6 (j) mice/group.
For intraperitoneal glucose tolerance tests, mice were fasted 12 h overnight and injected i.p. with glucose (40%; B.Braun, Melsungen, Germany) at a dose of 1 g/kg body weight. Blood samples were obtained at time points 0, 15, 30, 60, 90, and 120 min for glucose measurements by using a Glucometer. For i.p. insulin tolerance tests, mice were injected with 0.75 U/kg body weight recombinant human insulin (Novolin, Novo Nordisk) after 4–5-h fasting, and glucose concentration was determined with the Glucometer. Insulin secretion was measured before (0 min) and after (15 and 30 min) i.p. injection of glucose (2 g/kg) and measured by using ultrasensitive mouse Elisa kit (ALPCO Diagnostics, Salem, NH).

[2] = test system: isolated islets from db/db mice; test: Ex vivo pMST1, BIM (western blot) and nuclear PDX1 in isolated db/db islets; assay type: cell-based, mouse; conditions: 10 μM, 24 h ex vivo
Source text: mouse islets ex vivo. Representative double-stainings for PDX1 (green) and insulin (red) shown from isolated islets from 10-week old heterozygous db/+ mice or db/db littermates […]
Representative microscopical images are shown. White arrow point to PDX1 deficient nuclei in db/db mouse islets. Related to Figure

[3] = test system: obese diabetic Lepr db/db mice; test: db/db model: β-cell apoptosis (TUNEL); assay type: in vivo, mouse; conditions: for TUNEL%/ mouse: dbdb mice
Source text: as §1
(§2) Mouse pancreases were dissected and fixed in 4% formaldehyde at 4 °C for 12 h before embedding in paraffin[62]. Two-four-micrometer sections were deparaffinized, rehydrated, and incubated overnight at 4 °C with anti-PDX-1 (Abcam; #47267), anti-Glut2 (Chemicon; #07-1402), anti-Ki67 (Dako; #M7249), anti-phospho-Histone H3 (Ser10; Merck #06-570), and anti-NKX6.1 (DSHB, University of Iowa #F55A12[66]) in combination with TSA (Invitrogen #T30955), or for 2 h at room temperature with anti-insulin (Dako; A0546) antibodies (all at a dilution of 1:100, except anti-PDX-1, which was diluted 1:400) followed by fluorescein isothiocyanate (FITC)- or Cy3-conjugated secondary antibodies (Jackson ImmunoResearch Laboratories, West Grove, PA). Slides were mounted with Vectashield with 4′6-diamidino-2-phenylindole (DAPI) (Vector Labs). β-cell apoptosis was analyzed by the terminal deoxynucleotidyl transferase-mediated dUTP nick-end labeling (TUNEL) technique according to the manufacturer’s instructions (In Situ Cell Death Detection Kit, TMR red; Roche) and double stained for insulin. Fluorescence was analyzed by using a Nikon MEA53200 (Nikon GmbH, Dusseldorf, Germany) microscope, and images were acquired by using NIS-Elements software (Nikon).

[4] = test system: MLD–STZ C57BL/6J mice; test: MLD–STZ model: β-cell apoptosis (TUNEL); assay type: in vivo, mouse
Protocol: C57Bl/6J mice were injected with 40 mg/kg streptozotocin or citrate buffer for 5 consecutive days. […] In d, basal glucose values were normalized to 100%. e Insulin secretion measured from retro-orbital blood draw during an ipGTT measured before (0 min) and 15 min after glucose injection; data are expressed as the ratio of secreted insulin at 15 min/0 min (stimulatory index). f The ratio of secreted insulin and glucose is calculated at fed state. g–i Mice were killed at day 35. g β-cell mass (given as percentage of the whole pancreatic section from ten sections spanning the width of the pancreas) and quantitative analyses from triple staining for h TUNEL or i Ki67, insulin, and DAPI expressed as percentage of TUNEL- or Ki67-positive β-cells ±SEM. An average number of 2331 (h), or 26369 (i) β-cells were counted. n = 9 mice/group for (a); n = 4–12 for (b); n = 5–15 for (c) and (d); n = 12–19 for (e); n = 8–14 for (f); n = 4–9 for (g); n = 4–11 for (h); and n = 6–11 mice/groupfor (i); all from three independent experiments).
as §2

[5] = target: PAK3 (Homo sapiens, UniProt O75914); test: Nanosyn kinase profiling, mobility shift assay; assay type: biochemical; conditions: 12 points dose response
Protocol: (§3) inhibition was determined for each assay.

[6] = target: T1, PAK6 (Homo sapiens, UniProt Q9NQU5); test: Nanosyn kinase profiling, mobility shift assay; assay type: biochemical; conditions: 12 points dose response
T1 construct: Nanosyn (assay service)
Protocol: as §3

[7] = target: T2, PAK5 (Homo sapiens, UniProt Q9P286); test: Nanosyn kinase profiling, mobility shift assay; assay type: biochemical; conditions: 12 points dose response
T2 construct: Nanosyn (assay service)
Protocol: as §3

[8] = target: T3, PHK1 (Homo sapiens, UniProt Q16816); test: Nanosyn kinase profiling, mobility shift assay; assay type: biochemical; conditions: 12 points dose response
T3 construct: Nanosyn (assay service)
Protocol: as §3

[9] = target: T4, MST3 (Homo sapiens, UniProt Q9Y6E0); test: Nanosyn kinase profiling, mobility shift assay; assay type: biochemical; conditions: 12 points dose response
T4 construct: Nanosyn (assay service)
Protocol: as §3

[10] = target: T5, AXL (Homo sapiens, UniProt P30530); test: Nanosyn kinase profiling, mobility shift assay; assay type: biochemical; conditions: 12 points dose response
T5 construct: Nanosyn (assay service)
Protocol: as §3

[11] = target: MAP4K2 (Homo sapiens, UniProt Q12851); test: Nanosyn kinase profiling, mobility shift assay; assay type: biochemical; conditions: 12 points dose response
Protocol: as §3

[12] = target: T6, HIPK1 (Homo sapiens, UniProt Q86Z02); test: Nanosyn kinase profiling, mobility shift assay; assay type: biochemical; conditions: 12 points dose response
T6 construct: Nanosyn (assay service)
Protocol: as §3

[13] = target: T7, CHEK2 (Homo sapiens, UniProt O96017); test: Nanosyn kinase profiling, mobility shift assay; assay type: biochemical; conditions: 12 points dose response
T7 construct: Nanosyn (assay service)
Protocol: as §3

T7 sequence (O96017 whole entry, species assumed): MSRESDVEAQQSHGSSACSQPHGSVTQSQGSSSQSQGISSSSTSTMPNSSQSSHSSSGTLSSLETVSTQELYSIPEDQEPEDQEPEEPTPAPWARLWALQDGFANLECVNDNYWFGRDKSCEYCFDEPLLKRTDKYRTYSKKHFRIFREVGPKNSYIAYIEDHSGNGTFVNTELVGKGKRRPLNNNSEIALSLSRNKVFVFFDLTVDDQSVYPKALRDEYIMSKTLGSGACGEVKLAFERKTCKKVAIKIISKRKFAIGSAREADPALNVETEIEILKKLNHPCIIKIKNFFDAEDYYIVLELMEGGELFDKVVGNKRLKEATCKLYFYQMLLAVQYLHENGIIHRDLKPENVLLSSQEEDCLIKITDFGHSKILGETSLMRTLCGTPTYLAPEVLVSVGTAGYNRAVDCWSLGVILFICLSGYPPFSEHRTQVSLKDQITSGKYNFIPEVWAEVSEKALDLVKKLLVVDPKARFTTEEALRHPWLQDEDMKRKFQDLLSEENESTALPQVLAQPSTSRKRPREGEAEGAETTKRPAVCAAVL
T4 sequence (Q9Y6E0 whole entry, species assumed): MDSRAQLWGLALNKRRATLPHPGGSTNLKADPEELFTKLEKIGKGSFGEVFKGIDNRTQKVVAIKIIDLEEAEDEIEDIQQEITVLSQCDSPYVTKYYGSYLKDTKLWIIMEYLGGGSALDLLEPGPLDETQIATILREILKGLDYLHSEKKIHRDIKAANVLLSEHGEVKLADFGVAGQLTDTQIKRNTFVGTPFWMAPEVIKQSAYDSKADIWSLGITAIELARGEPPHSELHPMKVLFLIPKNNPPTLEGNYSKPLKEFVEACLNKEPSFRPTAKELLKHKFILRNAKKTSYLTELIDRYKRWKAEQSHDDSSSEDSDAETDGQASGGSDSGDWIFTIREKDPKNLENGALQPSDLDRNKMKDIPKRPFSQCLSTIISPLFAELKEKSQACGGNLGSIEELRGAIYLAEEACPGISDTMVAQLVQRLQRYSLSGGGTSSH
T6 sequence (Q86Z02 whole entry, species assumed): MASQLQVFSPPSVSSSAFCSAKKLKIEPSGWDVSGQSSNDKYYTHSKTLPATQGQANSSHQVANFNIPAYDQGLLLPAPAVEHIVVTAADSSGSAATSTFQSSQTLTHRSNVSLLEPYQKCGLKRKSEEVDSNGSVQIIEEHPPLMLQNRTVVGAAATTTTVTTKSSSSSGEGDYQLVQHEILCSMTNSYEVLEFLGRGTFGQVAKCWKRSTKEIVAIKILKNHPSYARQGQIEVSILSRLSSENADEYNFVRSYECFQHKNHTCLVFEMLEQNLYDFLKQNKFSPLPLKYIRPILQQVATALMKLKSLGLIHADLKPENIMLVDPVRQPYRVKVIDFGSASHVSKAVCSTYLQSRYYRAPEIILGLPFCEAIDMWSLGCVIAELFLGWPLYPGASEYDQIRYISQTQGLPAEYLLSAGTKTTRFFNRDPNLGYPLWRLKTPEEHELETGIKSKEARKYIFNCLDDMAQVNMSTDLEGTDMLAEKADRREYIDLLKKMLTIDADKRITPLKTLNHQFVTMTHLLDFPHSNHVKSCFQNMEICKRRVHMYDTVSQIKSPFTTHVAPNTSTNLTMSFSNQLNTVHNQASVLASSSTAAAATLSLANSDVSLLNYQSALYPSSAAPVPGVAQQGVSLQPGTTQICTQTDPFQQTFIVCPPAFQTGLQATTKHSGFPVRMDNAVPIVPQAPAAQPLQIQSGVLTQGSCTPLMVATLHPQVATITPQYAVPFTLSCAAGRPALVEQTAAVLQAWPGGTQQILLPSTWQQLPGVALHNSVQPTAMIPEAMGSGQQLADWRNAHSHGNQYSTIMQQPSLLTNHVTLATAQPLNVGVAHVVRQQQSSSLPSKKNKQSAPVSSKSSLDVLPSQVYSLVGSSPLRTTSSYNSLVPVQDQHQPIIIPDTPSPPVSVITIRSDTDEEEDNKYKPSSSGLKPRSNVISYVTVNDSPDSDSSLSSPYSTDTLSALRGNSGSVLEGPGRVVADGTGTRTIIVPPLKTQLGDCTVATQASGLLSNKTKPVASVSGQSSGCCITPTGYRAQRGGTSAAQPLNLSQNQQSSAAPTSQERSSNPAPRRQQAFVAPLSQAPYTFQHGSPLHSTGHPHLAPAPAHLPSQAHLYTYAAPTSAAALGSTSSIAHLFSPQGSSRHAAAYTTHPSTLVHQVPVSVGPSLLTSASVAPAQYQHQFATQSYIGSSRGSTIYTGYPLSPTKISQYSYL
T2 sequence (Q9P286 whole entry): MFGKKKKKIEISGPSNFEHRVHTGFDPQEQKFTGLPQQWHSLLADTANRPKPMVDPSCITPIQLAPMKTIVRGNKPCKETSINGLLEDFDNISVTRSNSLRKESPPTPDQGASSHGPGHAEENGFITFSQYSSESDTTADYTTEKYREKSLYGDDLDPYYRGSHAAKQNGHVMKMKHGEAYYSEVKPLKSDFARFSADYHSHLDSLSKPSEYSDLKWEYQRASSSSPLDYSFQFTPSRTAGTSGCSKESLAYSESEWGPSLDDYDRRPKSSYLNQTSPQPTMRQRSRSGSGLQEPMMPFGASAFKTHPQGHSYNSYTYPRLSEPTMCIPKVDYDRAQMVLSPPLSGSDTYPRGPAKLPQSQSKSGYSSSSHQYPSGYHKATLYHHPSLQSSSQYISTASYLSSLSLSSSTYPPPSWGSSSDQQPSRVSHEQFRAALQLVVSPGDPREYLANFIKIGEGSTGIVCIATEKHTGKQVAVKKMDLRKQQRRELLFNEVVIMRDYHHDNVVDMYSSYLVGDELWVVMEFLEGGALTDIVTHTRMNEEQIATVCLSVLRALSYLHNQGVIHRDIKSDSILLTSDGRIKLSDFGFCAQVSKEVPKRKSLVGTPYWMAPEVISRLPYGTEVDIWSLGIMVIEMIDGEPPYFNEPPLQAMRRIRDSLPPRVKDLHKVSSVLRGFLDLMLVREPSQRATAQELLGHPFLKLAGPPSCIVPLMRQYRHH
Sequence of MAP4K2 (Q12851 whole entry, species assumed): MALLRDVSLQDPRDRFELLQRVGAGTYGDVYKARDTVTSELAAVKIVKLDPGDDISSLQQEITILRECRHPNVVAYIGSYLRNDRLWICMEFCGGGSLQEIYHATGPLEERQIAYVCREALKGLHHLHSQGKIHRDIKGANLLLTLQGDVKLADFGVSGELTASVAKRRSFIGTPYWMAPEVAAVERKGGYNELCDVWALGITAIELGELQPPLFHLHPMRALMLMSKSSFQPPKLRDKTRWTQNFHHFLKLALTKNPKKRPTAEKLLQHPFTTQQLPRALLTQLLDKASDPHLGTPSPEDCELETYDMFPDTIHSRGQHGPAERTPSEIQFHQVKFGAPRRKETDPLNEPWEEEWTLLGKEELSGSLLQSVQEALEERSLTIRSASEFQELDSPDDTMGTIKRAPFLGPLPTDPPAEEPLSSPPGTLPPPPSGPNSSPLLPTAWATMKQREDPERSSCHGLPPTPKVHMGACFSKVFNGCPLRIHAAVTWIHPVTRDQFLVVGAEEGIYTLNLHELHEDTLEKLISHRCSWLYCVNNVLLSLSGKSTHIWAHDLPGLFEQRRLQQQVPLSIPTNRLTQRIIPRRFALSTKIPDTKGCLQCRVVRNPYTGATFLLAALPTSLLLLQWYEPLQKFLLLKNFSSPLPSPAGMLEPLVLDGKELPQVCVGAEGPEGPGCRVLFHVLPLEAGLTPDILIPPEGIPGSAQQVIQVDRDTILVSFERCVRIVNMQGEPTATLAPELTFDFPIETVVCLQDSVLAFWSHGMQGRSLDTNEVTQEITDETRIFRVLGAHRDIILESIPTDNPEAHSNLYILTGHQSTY
T5 sequence (P30530 26-894, species assumed): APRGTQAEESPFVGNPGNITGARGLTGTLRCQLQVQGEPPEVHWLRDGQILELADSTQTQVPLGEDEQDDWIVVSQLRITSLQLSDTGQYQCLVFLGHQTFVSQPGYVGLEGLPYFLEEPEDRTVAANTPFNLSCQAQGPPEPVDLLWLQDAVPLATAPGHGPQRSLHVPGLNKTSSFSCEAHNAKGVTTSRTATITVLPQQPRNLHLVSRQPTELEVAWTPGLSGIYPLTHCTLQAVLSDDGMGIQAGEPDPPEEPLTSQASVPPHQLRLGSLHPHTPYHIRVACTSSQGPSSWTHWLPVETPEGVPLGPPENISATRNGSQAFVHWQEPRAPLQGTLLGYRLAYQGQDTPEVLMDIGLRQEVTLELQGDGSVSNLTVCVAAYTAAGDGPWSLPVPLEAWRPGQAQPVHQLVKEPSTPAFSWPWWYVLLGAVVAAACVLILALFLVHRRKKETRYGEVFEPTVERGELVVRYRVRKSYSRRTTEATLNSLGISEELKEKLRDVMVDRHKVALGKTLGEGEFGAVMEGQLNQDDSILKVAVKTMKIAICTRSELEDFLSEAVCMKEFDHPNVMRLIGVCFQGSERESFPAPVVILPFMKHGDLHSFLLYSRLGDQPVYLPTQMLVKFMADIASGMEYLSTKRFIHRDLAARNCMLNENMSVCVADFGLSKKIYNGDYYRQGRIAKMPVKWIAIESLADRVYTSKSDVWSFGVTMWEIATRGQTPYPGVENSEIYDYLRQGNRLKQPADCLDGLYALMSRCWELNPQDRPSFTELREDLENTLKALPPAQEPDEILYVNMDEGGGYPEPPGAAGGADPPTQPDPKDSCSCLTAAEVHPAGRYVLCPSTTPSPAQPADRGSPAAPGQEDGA
T3 sequence (Q16816 whole entry): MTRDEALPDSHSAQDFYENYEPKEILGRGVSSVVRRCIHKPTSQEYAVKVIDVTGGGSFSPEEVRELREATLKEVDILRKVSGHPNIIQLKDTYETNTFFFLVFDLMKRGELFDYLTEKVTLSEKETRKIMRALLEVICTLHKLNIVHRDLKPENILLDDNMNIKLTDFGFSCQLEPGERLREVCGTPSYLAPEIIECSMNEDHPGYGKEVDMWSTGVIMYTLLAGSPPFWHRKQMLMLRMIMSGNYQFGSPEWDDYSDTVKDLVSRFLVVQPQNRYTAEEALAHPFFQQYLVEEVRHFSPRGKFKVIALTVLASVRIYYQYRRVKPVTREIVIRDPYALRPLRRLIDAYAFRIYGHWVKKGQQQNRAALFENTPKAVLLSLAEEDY

## CCOc1cc2ncc(C#N)c(Nc3ccc(OCc4ccccn4)c(Cl)c3)c2cc1NC(=O)/C=C/CN(C)C [neratinib]
[1]; db/db
  basal glucose levels after an overnight fast: unchanged
  glucose levels in ipGTT: lower glucose levels at all time points measured
[1]; insert 8b, individual mice
  AUC ipGTT: 30540 and 34635 and 37620 and 33592.5 and 28230 and 32955
[1]; insert 8b, mean
  MEAN AUC ipGTT: 32928.8
[1]; time after glc 0, MEAN
  ipGTT: 167.333 mg/dL
[1]; time after glc 0, individual mice
  ipGTT: 133 mg/dL and 142 mg/dL and 168 mg/dL and 224 mg/dL and 154 mg/dL and 183 mg/dL
[1]; time after glc 15, MEAN
  ipGTT: 424.5 mg/dL
[1]; time after glc 15, individual mice, 600 mg/dl is maximum reading
  ipGTT: 425 mg/dL and 445 mg/dL and 468 mg/dL and 413 mg/dL and 308 mg/dL and 488 mg/dL
[1]; time after glc 30, MEAN, 600 mg/dl is maximum reading
  ipGTT: 520.5 mg/dL
[1]; time after glc 30, individual mice, 600 mg/dl is maximum reading
  ipGTT: 481 mg/dL and ≥ 600 mg/dL and 476 mg/dL and 485 mg/dL
[1]; time after glc 60, MEAN
  ipGTT: 340.167 mg/dL
[1]; time after glc 60, individual mice
  ipGTT: 301 mg/dL and 355 mg/dL and 388 mg/dL and 367 mg/dL and 321 mg/dL and 309 mg/dL
[1]; time after glc 90, MEAN
  ipGTT: 226 mg/dL
[1]; time after glc 90, individual mice
  ipGTT: 221 mg/dL and 183 mg/dL and 280 mg/dL and 259 mg/dL and 141 mg/dL and 272 mg/dL
[1]; time after glc 120, MEAN
  ipGTT: 170.833 mg/dL
[1]; time after glc 120, individual mice
  ipGTT: 191 mg/dL and 139 mg/dL and 210 mg/dL and 133 mg/dL and 213 mg/dL
[2]
  MST1 activation and proapoptotic BIM in db/db islets: reversed
  nuclear PDX1 expression in db/db islets: enhanced nuclear PDX1 expression
[3]; db/db, day 31
  β-cell apoptosis: significantly reduced β-cell apoptosis
[3]; Mean
  TUNEL%/ mouse: 0.5462%
[3]; individual mice
  TUNEL%/ mouse: 0.6553% and 0.4112% and 0.66% and 0.4585%
[4]; NeraCtr group (no STZ), MEAN
  TUNEL%/ mouse: 0.08333%
[4]; NeraCtr group (no STZ), individual mice
  TUNEL%/ mouse: 0.3333% and 0%
[4]; NeraSTZ group, MEAN
  TUNEL%/ mouse: 0.24%
[4]; NeraSTZ group, individual mice
  TUNEL%/ mouse: 0% and 0.2857% and 1.2987% and 0.3546% and 0.7008%
[4]; STZ mice, day 35
  β-cell apoptosis: reduced β-cell apoptosis
[5]
  IC50: 1500 nM
[6]
  IC50: > 20000 nM
[7]
  IC50: > 20000 nM
[8]
  IC50: 5850 nM
[9]
  IC50: 5 nM
[10]
  IC50: 185 nM
[11]
  IC50: 102 nM
[12]
  IC50: > 20000 nM
[13]
  IC50: 937 nM
